Laboratory results taken from US20100298141A1, “SUBSTITUTED PYRIDINE N-OXIDE HERBICIDES” (E. I. DU PONT DE NEMOURS AND COMPANY, priority 2007, published 2010).

Columns and labels:
[1] = test system: tall waterhemp; assay: Test G preemergence test; assay type: in vivo, Amaranthus tuberculatos; conditions: scale 0 to 100
[2] = test system: blackgrass; assay: Test D preemergence test; assay type: in vivo, Alopecurus myosuroides; conditions: scale 0 to 100
Excerpt: (§1) Seeds of plant species selected from annual bluegrass (Poa annua), blackgrass (Alopecurus myosuroides), downy bromegrass (Bromus tectorum), field violet (Viola arvensis), green foxtail (Setaria viridis), Italian ryegrass (Lolium multiflorum), littleseed canarygrass (Phalaris minor), spring wheat (Triticum aestivum), wild oat (Avena fatua), […]), winter barley (Hordeum vulgare), and winter wheat (Triticum aestivum) were planted and treated preemergence with test chemicals formulated in a non-phytotoxic solvent mixture which included a surfactant. […] A dash (-) response means no test result.

[3] = test system: winter barley; assay: Test D preemergence test; assay type: in vivo, Hordeum vulgare
Excerpt: as §1

[4] = test system: Italian ryegrass; assay: Test D preemergence test; assay type: in vivo, Lolium multiflorum; conditions: scale 0 to 100
Excerpt: as §1

[5] = test system: soybean; assay: Test G preemergence test; assay type: in vivo, Glycine max; conditions: scale 0 to 100
[6] = test system: corn; assay: Test G preemergence test; assay type: in vivo, Zea mays; conditions: scale 0 to 100
[7] = test system: millet foxtail; assay: Test G preemergence test; assay type: in vivo, Setaria italica; conditions: scale 0 to 100
[8] = test system: downy bromegrass; assay: Test D preemergence test; assay type: in vivo, Bromus tectorum; conditions: scale 0 to 100
Excerpt: as §1

[9] = test system: field sandbur; assay: Test G preemergence test; assay type: in vivo, Cenchrus incertus; conditions: scale 0 to 100
[10] = test system: spring wheat; assay: Test D preemergence test; assay type: in vivo, Triticum aestivum; conditions: scale 0 to 100
Excerpt: as §1

[11] = test system: winter wheat; assay: Test D preemergence test; assay type: in vivo, Triticum aestivum; conditions: scale 0 to 100
Excerpt: as §1

[12] = test system: field violet; assay: Test D preemergence test; assay type: in vivo, Viola arvensis; conditions: scale 0 to 100
Excerpt: as §1

[13] = test system: woolly cupgrass; assay: Test G preemergence test; assay type: in vivo, Eriochloa villosa; conditions: scale 0 to 100
[14] = test system: barnyardgrass; assay: Test G preemergence test; assay type: in vivo, Echinochloa crus-galli; conditions: scale 0 to 100
[15] = test system: sorghum; assay: Test G preemergence test; assay type: in vivo, Sorghum vulgare; conditions: scale 0 to 100
[16] = test system: yellow nutsedge; assay: Test G preemergence test; assay type: in vivo, Cyperus esculentus; conditions: scale 0 to 100
[17] = test system: wild oat; assay: Test D preemergence test; assay type: in vivo, Avena fatua; conditions: scale 0 to 100
Excerpt: as §1

[18] = test system: yellow foxtail; assay: Test G preemergence test; assay type: in vivo, Pennisetum glaucum; conditions: scale 0 to 100
[19] = test system: littleseed canarygrass; assay: Test D preemergence test; assay type: in vivo, Phalaris minor; conditions: scale 0 to 100
Excerpt: as §1

[20] = test system: goosegrass; assay: Test G preemergence test; assay type: in vivo, Eleusine indica; conditions: scale 0 to 100
[21] = test system: itchgrass; assay: Test G preemergence test; assay type: in vivo, Rottboellia cochinchinensis; conditions: scale 0 to 100
[22] = test system: annual bluegrass; assay: Test D preemergence test; assay type: in vivo, Poa annua; conditions: scale 0 to 100
Excerpt: as §1

Structure (SMILES): Cc1cc[n+]([O-])c(S(=O)(=O)C(Cl)c2c(C(F)(F)F)nn(C)c2Cl)c1 (racemic) [Compound 22]
- Plant response rating, Waterhemp ([1]; 31 g ai/ha): 0
- Plant response rating, Waterhemp ([1]; 62 g ai/ha): 20
- Plant response rating, Waterhemp ([1]; 125 g ai/ha): 30
- Plant response rating, Waterhemp ([1]; 250 g ai/ha): 100
- Plant response rating, Blackgrass ([2]; 31 g ai/ha): 40
- Plant response rating, Blackgrass ([2]; 62 g ai/ha): 40
- Plant response rating, Blackgrass ([2]; 250 g ai/ha): 95
- Plant response rating, Barley ([3]; Preemergence, 62 g ai/ha, scale 0 to 100): 0
- Plant response rating, Barley ([3]; Preemergence, 125 g ai/ha, scale 0 to 100): 0
- Plant response rating, Barley ([3]; Preemergence, 31 g ai/ha, scale 0 to 100): 0
- Plant response rating, Barley ([3]; preemergence, 250 g ai/ha, scale 0 (no effect) to 100 (complete control)): 0
- Plant response rating, Ryegrass, Italian ([4]; 31 g ai/ha): 0
- Plant response rating, Ryegrass, Italian ([4]; 62 g ai/ha): 30
- Plant response rating, Ryegrass, Italian ([4]; 125 g ai/ha): 35
- Plant response rating, Ryegrass, Italian ([4]; 250 g ai/ha): 55
- Plant response rating, Soybean ([5]; 31 g ai/ha): 0
- Plant response rating, Soybean ([5]; 62 g ai/ha): 0
- Plant response rating, Soybean ([5]; 125 g ai/ha): 0
- Plant response rating, Soybean ([5]; 250 g ai/ha): 0
- Plant response rating, Corn ([6]; 31 g ai/ha): 0
- Plant response rating, Corn ([6]; 62 g ai/ha): 0
- Plant response rating, Corn ([6]; 125 g ai/ha): 0
- Plant response rating, Corn ([6]; 250 g ai/ha): 0
- Plant response rating, Foxtail, Millet ([7]; 31 g ai/ha): 95
- Plant response rating, Foxtail, Millet ([7]; 62 g ai/ha): 95
- Plant response rating, Foxtail, Millet ([7]; 125 g ai/ha): 95
- Plant response rating, Foxtail, Millet ([7]; 250 g ai/ha): 95
- Plant response rating, Bromegrass, Downy ([8]; 31 g ai/ha): 0
- Plant response rating, Bromegrass, Downy ([8]; 62 g ai/ha): 20
- Plant response rating, Bromegrass, Downy ([8]; 125 g ai/ha): 20
- Plant response rating, Bromegrass, Downy ([8]; 250 g ai/ha): 35
- Plant response rating, Sandbur ([9]; 31 g ai/ha): 15
- Plant response rating, Sandbur ([9]; 62 g ai/ha): 60
- Plant response rating, Sandbur ([9]; 125 g ai/ha): 85
- Plant response rating, Sandbur ([9]; 250 g ai/ha): 100
- Plant response rating, Wheat, Spring ([10]; 31 g ai/ha): 0
- Plant response rating, Wheat, Spring ([10]; 62 g ai/ha): 0
- Plant response rating, Wheat, Spring ([10]; 125 g ai/ha): 0
- Plant response rating, Wheat, Spring ([10]; 250 g ai/ha): 15
- Plant response rating, Wheat, Winter ([11]; 31 g ai/ha): 0
- Plant response rating, Wheat, Winter ([11]; 62 g ai/ha): 0
- Plant response rating, Wheat, Winter ([11]; 125 g ai/ha): 0
- Plant response rating, Wheat, Winter ([11]; 250 g ai/ha): 10
- Plant response rating, Field Violet ([12]; 31 g ai/ha): 0
- Plant response rating, Field Violet ([12]; 62 g ai/ha): 30
- Plant response rating, Field Violet ([12]; 125 g ai/ha): 30
- Plant response rating, Field Violet ([12]; 250 g ai/ha): 45
- Plant response rating, Cupgrass, Woolly ([13]; 31 g ai/ha): 0
- Plant response rating, Cupgrass, Woolly ([13]; 62 g ai/ha): 60
- Plant response rating, Cupgrass, Woolly ([13]; 125 g ai/ha): 70
- Plant response rating, Cupgrass, Woolly ([13]; 250 g ai/ha): 80
- Plant response rating, Barnyardgrass ([14]; 31 g ai/ha): 0
- Plant response rating, Barnyardgrass ([14]; 62 g ai/ha): 95
- Plant response rating, Barnyardgrass ([14]; 125 g ai/ha): 100
- Plant response rating, Barnyardgrass ([14]; 250 g ai/ha): 100
- Plant response rating, Sorghum ([15]; 31 g ai/ha): 0
- Plant response rating, Sorghum ([15]; 62 g ai/ha): 0
- Plant response rating, Sorghum ([15]; 125 g ai/ha): 0
- Plant response rating, Sorghum ([15]; 250 g ai/ha): 95
- Plant response rating, Nutsedge, Yellow ([16]; 31 g ai/ha): 0
- Plant response rating, Nutsedge, Yellow ([16]; 62 g ai/ha): 0
- Plant response rating, Nutsedge, Yellow ([16]; 125 g ai/ha): 0
- Plant response rating, Nutsedge, Yellow ([16]; 250 g ai/ha): 45
- Plant response rating, Oat, Wild ([17]; 31 g ai/ha): 0
- Plant response rating, Oat, Wild ([17]; 62 g ai/ha): 0
- Plant response rating, Oat, Wild ([17]; 125 g ai/ha): 0
- Plant response rating, Oat, Wild ([17]; 250 g ai/ha): 15
- Plant response rating, Foxtail, Yellow ([18]; 31 g ai/ha): 0
- Plant response rating, Foxtail, Yellow ([18]; 62 g ai/ha): 35
- Plant response rating, Foxtail, Yellow ([18]; 125 g ai/ha): 100
- Plant response rating, Foxtail, Yellow ([18]; 250 g ai/ha): 100
- Plant response rating, Canarygrass ([19]; 31 g ai/ha): 0
- Plant response rating, Canarygrass ([19]; 62 g ai/ha): 15
- Plant response rating, Canarygrass ([19]; 125 g ai/ha): 75
- Plant response rating, Canarygrass ([19]; 250 g ai/ha): 100
- Plant response rating, Goosegrass ([20]; 31 g ai/ha): 100
- Plant response rating, Goosegrass ([20]; 62 g ai/ha): 100
- Plant response rating, Goosegrass ([20]; 125 g ai/ha): 100
- Plant response rating, Goosegrass ([20]; 250 g ai/ha): 100
- Plant response rating, Itchgrass ([21]; 31 g ai/ha): 0
- Plant response rating, Itchgrass ([21]; 62 g ai/ha): 15
- Plant response rating, Itchgrass ([21]; 125 g ai/ha): 20
- Plant response rating, Itchgrass ([21]; 250 g ai/ha): 40
- Plant response rating, Bluegrass ([22]; 31 g ai/ha): 20
- Plant response rating, Bluegrass ([22]; 62 g ai/ha): 65
- Plant response rating, Bluegrass ([22]; 125 g ai/ha): 95
- Plant response rating, Bluegrass ([22]; 250 g ai/ha): 100
